Reference: US4617187A, “Therapeutic method for treating radiation ulcers” (Eisai Co., Ltd., priority 1983, dated 1986)
Entries after “also recorded” stand apart in the source; their conditions may differ.

How the values were obtained:
[1] = system: radiation ulcers; test: Case 1: treatment of ulcer in irradiated chest wall after breast cancer; type: in vivo, patient; details: Case 1, after radiotherapy 40 Gy with oily bleomycin and carmofur ointment; peroral zinc sulfate and injection of intaserine to facilitate wound healing
From the text: Person, The patient underwent a surgery on […] left breast cancer. It recurred in their left chest wall seven years later, resulting in the formation of a carcinomatous ulcer. This carcinomatous ulcer became resistant to the cryosurgery and carcinostatic chemotherapy, leading to need for the radiotherapy. The patient was exposed to a total radiation dose of 40 Gy while using oily bleomycin and carmofur ointment in combination with a view toward enhancing the effects of the radiotherapy. […] However, they fell down accidently at this stage and the wound was traumatized and ulcerated again. Thus, cythocrome c was injected and at the same time, Bendazac ointment was applied. […] At this stage, the coating of a therapeutic preparation to be described in Example 1, which pertains to the present invention, was started.

[2] = system: radiation ulcer; test: Case 2: treatment of radiation ulcer of lower abdomen after cervical cancer radiation; type: in vivo, patient
From the text: This patient was subjected to postoperative radiation for the treatment of cervical cancer 18 years before. […] In the Case, the hyperbaric oxygen therapy, zinc sulfate, injectable glutathione, injectable intaserine and Bendazac ointment were applied intermittently in combination. […] Thus, the coating of a therapeutic preparation to be described in Example 1, which pertains to this invention, was initiated.

[3] = system: skin; test: Phototoxicity test; type: in vivo
[4] = system: Wistar rats; test: Subacute toxicity, peroral, rats; type: in vivo; details: peroral 40, 200 and 1,000 mg/kg/day, 5 weeks, male and female Wistar rats
Protocol: (§1) Ubidecarenone was perorally administered at 40, 200 and 1,000 mg/kg/day to male and female Wistar rats continuously over a period of 5 weeks and also at 60 and 600 mg/kg/day to male and female rabbits continuously over a period of 23 days.

[5] = system: skin; test: Photochallenge (optical challenge) test (Adjuvante Strip method); type: in vivo; details: Induction: 10% in Acetone
From the text: |Photo- Induction: 10% Acetone

[6] = system: cardiac muscle; details: known action, cited from earlier work
[7] = system: rabbits; test: Subacute toxicity, peroral, rabbits; type: in vivo; details: peroral 60 and 600 mg/kg/day, 23 days, male and female rabbits
Protocol: as §1

[8] = system: skin; test: Patch test; type: in vivo; details: 1% in Squalane
[9] = system: skin; test: Primary skin irritation test; type: in vivo; details: 1% in Squalane
[10] = cited from earlier work
[11] = system: skin; test: Cumulative skin irritation test; type: in vivo; details: 1% in Squalane
[12] = system: Wistar rats; test: Chronic toxicity, peroral, rats; type: in vivo; details: forced peroral 6, 60 and 600 mg/kg/day, 26 weeks, female and male Wistar rats
Protocol: Ubidecarenone was forcedly and perorally administered at 6, 60 and 600 mg/kg/day to female and male Wistar rats continuously over a straight period of 26 weeks.

[13] = Blepharoirritation test; type: in vivo; details: 1% in Squalane
[14] = system: skin; test: Stability and irritation when applied to the skin (general statement)
[15] = system: skin; test: Challenge test (Adjuvante & Patch Method); type: in vivo; details: Induction: 5% in Acetone
From the text: |Challenge Induction: 5% Acetone

[16] = system: radiation ulcers; test: Treatment of radiation ulcers (general statement); type: in vivo; details: administration to an ulcerated site
[17] = Case 2, prior treatment applied intermittently in combination, with hyperbaric oxygen therapy

## O=S(=O)([O-])[O-].[Zn+2] [zinc sulfate]
[1]
  ulcer outcome: the ulcer became cancer-free and an eschar was produced
[2]; [17]
  change of the ulcer: the ulcer was not improved

## COC1=C(OC)C(=O)C(C/C=C(\C)CC/C=C(\C)CC/C=C(\C)CC/C=C(\C)CC/C=C(\C)CC/C=C(\C)CC/C=C(\C)CC/C=C(\C)CC/C=C(\C)CCC=C(C)C)=C(C)C1=O [Ubidecarenone]
[3]; 1% in Squalane
  Phototoxicity, Conclusion: Little phototoxicity
[3]; 10% in Squalane
  Phototoxicity, Conclusion: Little phototoxicity
[4]
  general appearance, blood, urine test and morphological observation (visual and histological) vs control: No differences were observed
[5]; challenge 10% in Acetone
  Photochallenge, Conclusion: Little photo-
  Photochallenge, Results: 0/5
[5]; challenge conc. 0.5 in Acetone
  Photochallenge, Conclusion: Little photo-
  Photochallenge, Results: 0/5
[5]; challenge conc. 1 in Acetone
  Photochallenge, Conclusion: Little photo-
  Photochallenge, Results: 0/5
[5]; challenge conc. 2 in Acetone
  Photochallenge, Conclusion: Little photo-
  Photochallenge, Results: 0/5
[5]; challenge conc. 5 in Acetone
  Photochallenge, Conclusion: Little photo-
  Photochallenge, Results: 0/5
[6]; cardiac muscle in an ischemic state
  ATP-yielding function: maintain the ATP-yielding function at a high level even when the cardiac muscle is in an ischemic state
[6]
  disorders of ischemic cardiac muscle tissue: can reduce disorders, which the tissue of ischemic cardiac muscle would develop
  drop of heart contraction function: improve the drop of heart contraction function
  percentage oxygen utilization of cardiac muscle: can improve the percentage oxygen utilization of cardiac muscle
[7]
  general appearance, blood, urine test and morphological observation (visual and histological) vs control: No differences were observed
[8]
  Patch test, Conclusion: Little skin irri-
  Patch test, Results: 0/54
[9]
  Primary irritation, Conclusion: Little skin irri-
  Primary irritation, Results: 0.1
[10]; oil
  solubility in oil: oil-soluble
[10]; water or methanol
  solubility in water or methanol: hardly soluble
[11]
  Cumulative skin irritation, Conclusion: Little skin irri-
  Cumulative skin irritation, Results: 0.3
[12]
  general appearance, blood, urine test and morphological observation (visual and histological) vs control: no differences were observed
[13]
  Blepharoirritation, Conclusion: Little blepharo-
[2]; Case 2, oral ubidecarenone therapy, 2 months
  change of the ulcer: no change was observed as to the ulcer
[14]
  irritation to the skin: little irritation to the skin
  stability when applied to the skin: good stability
[15]; challenge 1% in Acetone
  Challenge, Conclusion: Little challenge
  Challenge, Results: 0/10
[15]; challenge 5% in Acetone
  Challenge, Conclusion: Little challenge
  Challenge, Results: 0/10
[16]
  curing of radiation ulcers: excellent curing results; also recorded: radiation ulcers can be successfully cured

## N[C@@H](CCC(=O)N[C@@H](CS)C(=O)NCC(=O)O)C(=O)O [glutathione]
[2]; [17]
  change of the ulcer: the ulcer was not improved
